Data: US10604514B2, “6-(5-membered heteroaryl)isoquinolin-3-yl carboxamides and preparation and use thereof” (Samumed, LLC, priority 2017, dated 2020)
pEC50: −log10 of the molar value. Where two headings read alike, the source gives them in different places.

Assays:
[1] = tested on: LL29 cells (primary human fibroblasts derived from IPF patients), α-smooth muscle actin; assay: Inhibition of fibrotic process: αSMA in TGF-β1-treated primary human fibroblasts from IPF patients (LL29 cells); format: cell-based; conditions: Homo sapiens, Fibroblast; for pEC50: 96 h, % αSMA-positive LL29 cells, TGF-β1 20 ng/mL, 4 days; for inhibition at 10 µM: read-out: percent inhibition at 10 μM
Description: Representative compounds were screened using primary human fibroblasts (derived from IPF patients) treated with TGF-β1 to determine their ability to inhibit the fibrotic process.
Primary human fibroblasts derived from IPF patients (LL29 cells) [^1Xiaoqiu Liu, et. al., “Fibrotic Lung Fibroblasts Show Blunted Inhibition by cAMP Due to Deficient cAMP Response Element-Binding Protein Phosphorylation”, Journal of Pharmacology and Experimental Therapeutics (2005), 315(2), 678-687; ^2Watts, K. L., et. al., “RhoA signaling modulates cyclin D1 expression in human lung fibroblasts; implications for idiopathic pulmonary fibrosis”, Respiratory Research (2006), 7(1), 88] were obtained from American Type Culture Collection (ATCC) and expanded in F12 medium supplemented with 15% Fetal Bovine Serum and 1% Penicillin/Streptomycin.
Each compound was dissolved in DMSO as a 10 mM stock and used to prepare compound source plates. Serial dilution (1:2, 11-point dose-response curves from […] to 0.94 nM) and compound transfer was performed using the ECHO 550 (Labcyte, Sunnyvale, Calif.) into 384-well clear bottom assay plates (Greiner Bio-One) with appropriate DMSO backfill for a final DMSO concentration of 0.1%. LL29 cells were plated at 1,500 cells/well in 70 μL/well F12 medium supplemented with 1% Fetal Bovine Serum. TGF-β1 (Peprotech; 20 ng/mL) was added to the plates to induce fibrosis (ref. 1 and 2 above). Wells treated with TGF-31 and containing DMSO were used as positive control, and cells with only DMSO were negative control. Cells were incubated at 37° C. and 5% CO2 for 4 days. Following incubation for 4 days, SYTOX green nucleic acid stain (Life Technologies [Thermo Fisher Scientific]) was added to the wells at a final concentration of 1 μM and incubated at room temperature for 30 min. Cells were then fixed using 4% formaldehyde (Electron Microscopy Sciences), washed 3 times with PBS followed by blocking and permeabilization using 3% Bovine Serum Albumin (BSA; Sigma) and 0.3% Triton X-100 (Sigma) in PBS. Cells were then stained with antibody specific to α-smooth muscle actin (αSMA; Abcam) (ref. 1 and 2 above) in 3% Bovine Serum Albumin (BSA; Sigma) and 0.3% Triton X-100 (Sigma) in PBS, and incubated overnight at 4° C. Cells were then washed 3 times with PBS, followed by incubation with Alexa Flor-647 conjugated secondary antibody (Life Technologies [Thermo Fisher Scientific]) and DAPI in 3% Bovine Serum Albumin (BSA; Sigma) and 0.3% Triton X-100 (Sigma) in PBS at room temperature for 1 hour. Cells were then washed 3 times with PBS and plates were sealed for imaging. αSMA staining was imaged by excitation at 630 nm and emission at 665 nm and quantified using the Compartmental Analysis program on the CellInsight CX5 (Thermo Scientific). Dead or apoptotic cells were excluded from analysis based on positive SYTOX green staining. % of total cells positive for αSMA were counted in each well and normalized to the average of 11 wells treated with TGF-β1 on the same plate using Dotmatics' Studies Software.

GSK3β kinase = GSK3β kinase (Homo sapiens (Human), UniProt P49841); assay: GSK3β kinase assay (Ser/Thr 09 peptide Z-lyte, FRET); format: biochemical; conditions: method text calls the value IC50;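 note: Coumarin/fluorescein emission ratio converted to percent phosphorylation against unphosphorylated (0%) and phosphorylated (100%) controls, 1 h compound incubation at room temperature, 11-point threefold dilutions from 10 µM, run in duplicate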
Protocol: Representative compounds were screened using the assay procedure for GSK30 kinase activity as described below.
Each compound is dissolved in DMSO as a 10 mM stock and used to prepare compound source plates. Serial dilution (1:3, 11-point dose-response curves from 10 M to 0.0003 μM) and compound transfer was performed using the ECHO 550 (Labcyte, Sunnyvale, Calif.) into 1536-well black-walled round bottom plates (Corning).
This is a non-radioactive assay using fluorescence resonance energy transfer (FRET) between coumarin and fluorescein to detect kinase activity which is represented as ratio of coumarin emission/fluorescein emission.
The mixture is allowed to incubate with the representative compounds for one hour at room temperature. All reactions were performed in duplicate. Unphosphorylated (“0% Control”) and phosphorylated (“100% control”) forms of Ser/Thr 18 serve as control reactions.
After incubation, diluted Development Buffer is added to the reaction and allowed to further incubate for one hour at room temperature.
The percent phosphorylation is then calculated using the following formula: [1−((Em ratio×F100%)−C100%)/((C0%−C100%)+(Em ratio×(F100%−F0%)))].
Dose-response curves are generated and inhibitory concentration (IC50) values are calculated using non-linear regression curve fit in the Dotmatics' Studies Software (Bishops Stortford, UK).

IL-6 = IL-6 inhibition in LPS-stimulated human peripheral blood mononuclear cells (HTRF); format: cell-based; conditions: Homo sapiens, PBMC; for pEC50: IL-6, LPS-stimulated huPBMCs, HTRF; for inhibition at 10 µM: read-out: percent value in parentheses below EC50 >10
Protocol: Fresh Normal PB MNC (Catalog # PB001, AllCells, Alameda, Calif.) were shipped overnight at 4° C. and resuspended in Roswell Park Memorial Institute (RPMI) 1640 Medium, with GlutaMAX Supplement (Catalog #61870127, ThermoFisher Scientific, Waltham, Mass.) supplemented with 1% Penicillin-Streptomycin (Catalog #151401633 ThermoFisher Scientific, Waltham, Mass.) and 1% fetal bovine serum (FBS) (Catalog #16140089, ThermoFisher Scientific, Waltham, Mass.) assay media.
Fresh normal human peripheral blood mononuclear cells (huPBMCs) were resuspended in 1% FBS-RPMI assay media with 1% Penicillin-Streptomycin 1% to a cell concentration of 1×10e6 cells/mL. Each compound was dissolved in DMSO (Catalog # D8418-100 ml, Sigma-Aldrich, St. Louis, Mo.) as a 10 mM stock and used to prepare compound source plates. Serial dilution (1:3, 10-point dose-response curves starting from 10 μM) and compound transfer was performed using the ECHO 550 (Labcyte, Sunnyvale, Calif.) into 384-well white Proxiplate-Plus assay plates (Catalog #6008289, PerkinElmer, Shelton, Conn.) with appropriate DMSO backfill for a final DMSO concentration of 0.25%. huPBMCs were plated at 5000 cells/well in the 384-well Proxiplate-Plus assay plates and incubated at 37° C.-5% CO2 for 2 hours. 50 ng/mL of Lipopolysaccharides from Escherichia coli 0111:B4 (Catalog # L5293-2 ML, Sigma-Aldrich, St. Louis, Mo.) was added after 2 hours and cells were incubated for another 22 hours at 37° C.-5% CO2. After 22 hour incubation, a mixture of anti-IL6 XL665 and anti-IL-6 Cryptate diluted in reconstitution buffer (Catalog #62IL6PEC, Cisbio Inc., Bedford, Mass.) was added to each well. Following incubation for 3 hours at room temperature, Homogeneous Time-Resolved Fluorescence (HTRF) was measured using the Envision (Perkin Elmer, Shelton, Conn.) at 665 nm and […]. The ratio of fluorescence at 665 nm to 620 nm was used as a readout for IL-6 quantification. All samples were processed in duplicate. Readings were normalized to DMSO treated cells and normalized activities were utilized for EC50 calculations. EC50 was determined using software generated by Dotmatics Limited (Windhill Bishops Stortford Herts, UK) using the Levenberg-Marquardt 4 parameter fitting procedure with finite different gradients.

[2] = tested on: SW480 colon carcinoma cells; assay: Cell viability assay (CellTiter-Glo) in SW480 cells; format: cell-based, human; conditions: Homo sapiens; for pEC50: 96 h, cell viability, SW480 cells, four days, CellTiter-Glo; for inhibition at 10 µM: SW480, read-out: percent inhibition at 10 μM;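 for all read-outs here: SW480 cells stably carrying an Sp5-luciferase TCF/LEF reporter, luminescent ATP signal as viability measure, DMSO-treated cells as control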
Protocol: Representative compounds were screened using the assay procedure to assess the effect on cell viability as described below.
For the Cell Viability Assays, the cells were plated at 2,000 cells/well in 384-well plates with a DMEM medium containing 1% fetal bovine serum, and 1% Penicillin-Streptomycin and incubated for four days hours at 37° C. and 5% CO2. Eight replicates of DMSO-treated cells served as controls and cells treated with compound were performed in duplicate.
After incubation, 10 μL of CellTiter-Glo (Promega) was added to each well allowed to incubate for approximately 12 minutes.
Dose-response curves were generated and EC50 concentration values were calculated using non-linear regression curve fit in the GraphPad Prism (San Diego, Calif.) or Dotmatics' Studies Software (Bishops Stortford, UK).

DYRK1A kinase = DYRK1A kinase (Homo sapiens (Human), UniProt Q13627); assay: DYRK1A kinase assay (Ser/Thr 18 peptide Z-lyte, FRET)
[3] = tested on: Wnt activity (Sp5-Luc reporter in SW480 colon carcinoma cells); assay: Wnt activity screening assay (Sp5-Luc reporter gene assay); format: cell-based, human; conditions: Homo sapiens; for pEC50: Sp5-Luc reporter, SW480 cells, 36 to 48 hours
Description: The screening assay for Wnt activity is described as follows. Reporter cell lines can be generated by stably transducing cancer cell lines (e.g., colon cancer) or primary cells (e.g., IEC-6 intestinal cells) with a lentiviral construct that includes a Wnt-responsive promoter driving expression of the firefly luciferase gene.
SW480 colon carcinoma cells were transduced with a lentiviral vector expressing luciferase with a human Sp5 promoter consisting of a sequence of eight TCF/LEF binding sites. SW480 cells stably expressing the Sp5-Luc reporter gene and a hygromycin resistance gene were selected by treatment with 150 μg/mL of hygromycin for 7 days. These stably transduced SW480 cells were expanded in cell culture and used for all further screening activities. Each compound was dissolved in DMSO as a 10 mM stock and used to prepare compound source plates. Serial dilution (1:3, 10-point dose-response curves starting from 10 μM) and compound transfer was performed using the ECHO 550 (Labcyte, Sunnyvale, Calif.) into 384-well white solid bottom assay plates (Greiner Bio-One) with appropriate DMSO backfill for a final DMSO concentration of 0.1%. For Sp5-Luc reporter gene assays, the cells were plated at 4,000 cells/well in 384-well plates with a DMEM medium containing 1% fetal bovine serum, and 1% Penicillin-Streptomycin and incubated for 36 to 48 hours at 37° C. and 5% CO2. Following incubation, 15 μl of BriteLite Plus luminescence reagent (Perkin Elmer) was added to each well of the 384-well assay plates. The plates were placed on an orbital shaker for 2 min and then luminescence was quantified using the Envision (Perkin Elmer) plate reader. Readings were normalized to DMSO only treated cells, and normalized activities were utilized for EC50 calculations using the dose-response log (inhibitor) vs. response -variable slope (four parameters) nonlinear regression feature available in GraphPad Prism 5.0 (or Dotmatics).

[4] = tested on: Tau phosphorylation at Ser396 (pSer396), SH-SY5Y cells; assay: Tau phosphorylation at Ser396 (pSer396) in SH-SY5Y cells, ELISA/western blot; format: cell-based, human; conditions: Homo sapiens; SH-SY5Y cells, overnight (16-18 h); read-out: pSer396 Tau EC50;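 note: cell lysates probed for reduced Tau pSer396 via ELISA (colorimetric) or western blot (chemiluminescence), both with one shared pSer396 antibody, EC50 for lowering phosphorylation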
[5] = DYRK1A kinase, method text calls the value IC50

Chain of GSK3β kinase (P49841 whole entry): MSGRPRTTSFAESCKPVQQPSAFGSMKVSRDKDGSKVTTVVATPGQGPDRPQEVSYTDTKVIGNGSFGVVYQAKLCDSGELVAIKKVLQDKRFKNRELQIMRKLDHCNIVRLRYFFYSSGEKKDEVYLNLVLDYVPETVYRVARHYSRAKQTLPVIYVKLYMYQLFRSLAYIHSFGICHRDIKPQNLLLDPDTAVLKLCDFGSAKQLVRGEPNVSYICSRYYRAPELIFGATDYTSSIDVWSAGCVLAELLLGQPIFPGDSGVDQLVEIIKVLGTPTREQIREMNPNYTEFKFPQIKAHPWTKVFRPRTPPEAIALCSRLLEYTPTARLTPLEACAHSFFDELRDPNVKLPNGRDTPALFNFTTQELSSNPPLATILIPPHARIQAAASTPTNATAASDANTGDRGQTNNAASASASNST

Row | Compound | pEC50 [1] | pEC50 (GSK3β kinase) | pEC50 (IL-6) | pEC50 [2] | pEC50 (DYRK1A kinase) | pEC50 [3] | pEC50 [4] | pEC50 (DYRK1A kinase; [5]) | inhibition at 10 µM [1] | inhibition at 10 µM (IL-6) | inhibition at 10 µM [2] | inhibition at 10 µM ([3]; SW480, read-out: percent inhibition at 10 μM)
1 | [2H]c1c(NC(=O)C2CCNCC2)ncc2ccc(-c3cnn(C)c3)cc12 [Compound 5, N-(6-(1-Methyl-1H-pyrazol-4-yl)isoquinolin-3-yl-4-d)piperidine-4-carboxamide] | 6.95 | 6.94 | 5.98 | 6.13 | 8.52 | 6.04 | 6.29 |  |  |  |  | 
2 | Cn1cc(-c2cc(F)c3cnc(NC(=O)[C@H]4CC[C@H](N(C)C)CC4)cc3c2)nn1 [Compound 10, trans-4-(Dimethylamino)-N-(8-fluoro-6-(1-methyl-1H-1,2,3-triazol-4-yl)isoquinolin-3-yl)cyclohexane-1-carboxamide] | 6.68 | 7.74 | 5.04 | 6.14 |  | 6.03 | 6.92 | 8.40 |  |  |  | 
3 | Cn1cc(-c2ccc3cnc(NC(=O)CN4CCOCC4)cc3c2)nn1 [Compound 11, N-(6-(1-Methyl-1H-1,2,3-triazol-4-yl)isoquinolin-3-yl)-2-morpholinoacetamide] | < 5.00 | 8.00 | < 5.00 | < 5.00 |  | 5.55 | 6.72 | 8.00 | 3.8% | 38.4% | 46.3% | 
4 | Cc1nc(-c2ccc3cnc(NC(=O)[C@H]4CC[C@H](N5CCN(C)CC5)CC4)cc3c2)co1 [Compound 12, trans-N-(6-(2-Methyloxazol-4-yl)isoquinolin-3-yl)-4-(4-methylpiperazin-1-yl)cyclohexane-1-carboxamide] | 6.99 | 6.72 | 5.95 | 6.15 |  | 6.03 | 6.36 | 7.80 |  |  |  | 
5 | Cc1ncc(-c2ccc3cnc(NC(=O)N4CCOCC4)cc3c2)n1C [Compound 13, N-(6-(1,2-Dimethyl-1H-imidazol-5-yl)isoquinolin-3-yl)morpholine-4-carboxamide] | < 5.00 | 5.90 | < 5.00 | 5.46 |  | 5.43 | 5.33 | 7.89 | 38.2% | 17.6% |  | 
6 | Cn1cnnc1-c1ccc2cnc(NC(=O)CN3CCOCC3)cc2c1 [Compound 14, N-(6-(4-Methyl-4H-1,2,4-triazol-3-yl)isoquinolin-3-yl)-2-morpholinoacetamide] | 5.86 | 7.32 | < 5.00 | 5.26 |  | 5.27 | 6.42 | 7.48 |  | 12.5% |  | 
7 | Cc1nnc(-c2ccc3cnc(NC(=O)CN4CCOCC4)cc3c2)n1C [Compound 15, N-(6-(4,5-Dimethyl-4H-1,2,4-triazol-3-yl)isoquinolin-3-yl)-2-morpholinoacetamide] | 6.05 | 7.23 | < 5.00 | < 5.00 |  | < 5.00 | 6.01 | 7.21 |  | 15.8% | 38% | 40.1%
8 | CN[C@H]1CC[C@H](C(=O)Nc2cc3cc(-c4cnc(C)o4)ccc3cn2)CC1 [Compound 16, trans-4-(Methylamino)-N-(6-(2-methyloxazol-5-yl)isoquinolin-3-yl) cyclohexane-1-carboxamide] | 6.76 | 6.91 | 5.99 | 6.09 |  | 5.84 | 6.54 | 8.30 |  |  |  | 
9 | Cc1ncc(-c2cc(F)c3cnc(NC(=O)[C@H]4CC[C@H](N(C)C)CC4)cc3c2)o1 [Compound 17, trans-4-(Dimethylamino)-N-(8-fluoro-6-(2-methyloxazol-5-yl)isoquinolin-3-yl)cyclohexane-1-carboxamide] | 5.84 | 6.73 | 5.46 | 5.16 |  | 5.39 | 6.13 | 7.74 |  |  |  | 
10 | Cc1ncc(-c2cc3cc(NC(=O)[C@H]4CC[C@H](N(C)C)CC4)ncc3cc2F)o1 [Compound 18, trans-4-(Dimethylamino)-N-(7-fluoro-6-(2-methyloxazol-5-yl)isoquinolin-3-yl)cyclohexane-1-carboxamide] | 6.83 | 7.17 | 5.90 | 6.23 |  | 6.17 | 6.73 | 8.52 |  |  |  | 
